{"source": "patent US6958318B2", "about": "“Recombinant bacterial cells for delivery of PNP to tumor cells” (The UAB Research Foundation, priority 1993, dated 2005)", "key": {"[1]": {"target": "T1, E. coli PNP (Escherichia coli, UniProt P0ABP8)", "T1 sequence (P0ABP8 2-239)": "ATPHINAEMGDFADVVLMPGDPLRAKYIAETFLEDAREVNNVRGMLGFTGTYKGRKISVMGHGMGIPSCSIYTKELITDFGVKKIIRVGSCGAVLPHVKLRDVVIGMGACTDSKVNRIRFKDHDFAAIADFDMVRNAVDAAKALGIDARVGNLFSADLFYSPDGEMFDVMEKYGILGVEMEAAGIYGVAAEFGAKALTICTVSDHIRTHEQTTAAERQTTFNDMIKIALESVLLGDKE", "assay_type": "biochemical"}, "[2]": {"tested_on": "Mel-1 cells", "assay": "Wild type melanoma cell viability", "assay_type": "cell-based, human", "conditions": "concentrations as high as 50 μg/ml, five days"}, "[3]": {"tested_on": "T-84 colon carcinoma cells transfected with E. coli PNP", "assay": "Toxicity of MeP-dR in T-84 cells transfected with E. coli PNP", "assay_type": "cell-based, human", "method": "Cationic liposome mediated gene transfer was used to transfect T-84 colon carcinoma cells. Briefly, 6 μg of plasmid containing PNP or LacZ was added to 10 μg of a 1:1 molar mixture of DOTMA/DOPE (LipofectinJ (GIBCO/BRL, Gaithersburg, Md.)) in a final volume of 200 μl DMEM/FI2 serum free medium. After a 10 minute incubation at room temperature, the DNA-lipid mixture was added to 500 μl serum free medium and was used to cover the cells within a tray. Four hours later, transfection medium was removed from each well and 2 ml DMEM/FI2 with 10% fetal bovine serum was added.\nForty-eight hours following transfection, fresh medium was added and MeP-dR (1 mg/ml in PBS) was added directly to the cells to achieve the desired final concentrations. Cell viability was measured 5 days following treatment as described for the MeP-dR toxicity study.\nAfter 5 days the cells were removed from each well and the number of dye excluding cells were determined with the aid of a hemacytometer. 30-50% toxicity due to the DOTMA-DOPE transfection protocol is acceptable for cationic liposome mediated gene transfer to T-84 in vitro when performed under optimal conditions.\nIn an additional experiment, approximately 2×10^5 cells per well were transfected as above using 6 μg of plasmid containing E. coli PNP cDNA. Two days after transfection, varying concentrations of MeP-dR (0, 2, 4, 20, 40 and 160 μM) were added to the wells, and after 5 days the dye excluding cells were counted with the aid of a hemacytometer.\nAn experiment was also performed in triplicate in which 2×10^5 cells per well were transfected with LacZ or PNP using the protocol described for transfection. Two days after transfection, 16 μM MeP-dR was added to one set of the cultures transfected with PNP and one set of the cultures transfected with LacZ."}, "[4]": {"tested_on": "HEp-2 cells", "assay": "Toxicity to HEp-2 cells", "assay_type": "cell-based"}, "[5]": {"assay": "Systemically administered dose response (toxicity) in mice", "assay_type": "in vivo", "method": "The formula of Freireich et al., Cancer Chemother. Rep., 50:219-244, (1966) can be used to determine the maximum tolerated dose of substrate for a human subject. […] This amount or slightly less should result in maximal effectiveness of tumor cell killing in humans without killing the subject. This standard of effectiveness is accepted in the field of cancer therapy. However, more preferred is a range of from about 10% to 1% of the maximum tolerated dosage (for example, 7.5 mg/m^2-0.75 mg/m^2). Furthermore, it is understood that modes of administration that permit the substrate to remain localized at or near the site of the tumor will be effective at lower doses than systemically administered substrates."}, "[6]": {"tested_on": "wild-type 16/C tumors", "assay": "Wild-type 16/C tumors in B6C3F1 mice", "assay_type": "in vivo", "method": "Transduced 16/C cells were implanted in mice by subcutaneous injection of approximately 10^6 cells harvested from the cultures of stably transduced 16/C cells described above. The mice were examined visibly for tumor growth and those with developing tumors were maintained. To prepare mice for use in the in vivo experiments, the tumors were removed from mice with significant tumor growth and cut into 30-60 mg pieces. One 30-60 mg piece of the tumor was subcutaneously implanted into the subaxillary region of each female B6C3F1 mouse. The tumors were allowed to develop and mice with tumors of 100 mm^3 were used.\nSix mice (B6C3F1) per group with established wild type 16/C tumors were treated with an aqueous control solution, MeP-dR (100 mg/kg IP qd×3d) or 2-fluoro-arabinofuranosyladenine monophosphate (F-araAMP) (100 mg/kg IP, […]). The wild type tumors grew rapidly in the presence or absence of either of the prodrugs. […] (Table III, Wild-type 16/C treatment)."}, "[7]": {"target": "T1, E. coli PNP", "assay_type": "biochemical", "remark": "listed apart in the source"}, "[8]": {"tested_on": "D54 glioma tumors", "assay": "D54 tumors of mixed wild-type and transduced cells (80 to 20)", "conditions": "in vivo"}, "[9]": {"tested_on": "PNP transduced tumors", "assay_type": "in vivo", "conditions": "67 mg/kg ip, qd×3 d"}, "[10]": {"tested_on": "Lewis Lung tumors", "assay": "Lewis Lung tumors treated with recombinant E. coli and MeP-dR"}, "[11]": {"conditions": "IP for three days, MeP-dR 100, F-araAMP 500 mg/kg/day"}, "[12]": {"conditions": "67 mg/kg, IP Qd×3d plus recombinant E. coli"}}, "note": "Several values for one entry are separate records, joined by “and”; a condition that tells them apart may be missing. Equal values may be shown once. Read-outs that look alike come from different tables or passages of the source."}
{"smiles": "Cc1ncnc2c1ncn2[C@H]1C[C@H](O)[C@@H](CO)O1", "note": "[MeP-dR, 9-(β-D-2-deoxyerythropentofuranosyl)-6-methylpurine]", "values": [{"measurement": "Percent of substrate cleaved by E. coli PNP, 100 μM", "setting": "[1]", "value": "91(86)45(21) Percent and 93(87)29(24) Percent"}, {"measurement": "Percent of substrate cleaved by E. coli PNP, 1 mM", "setting": "[1]", "value": "91(86)45(21) Percent and 93(87)29(24) Percent"}, {"measurement": "Substrate quality for bacterial (E. coli) PNP", "setting": "[1]", "value": "good substrates"}, {"measurement": "Effect on Mel-1 cells", "setting": "[2]", "value": "unaffected"}, {"measurement": "Inhibition of cell growth", "setting": "[3]; 4 μM, 5 days, 6 μg PNP plasmid", "value": "greater than 80%"}, {"measurement": "Killing after PNP transfection", "setting": "[3]; 16 μM", "value": "Substantial killing"}, {"measurement": "Killing of cells transfected with E. coli PNP", "setting": "[3]; 160 μM, 5 days", "value": "killed virtually all of the cells"}, {"measurement": "Fold less toxic than 6-methylpurine (MeP)", "setting": "[4]", "value": 20, "unit": "fold"}, {"measurement": "Toxicity in mice", "setting": "[5]; 25 mg per kg per day for 9 days", "value": "some toxicity but no lethality"}, {"measurement": "Human dosage (maximum tolerated dose) by formula of Freireich", "setting": "[5]; 25 mg/kg×3", "value": 75, "unit": "mg/m^2"}, {"measurement": "Complete Regressions/Total", "setting": "[6]; [11]", "value": "0/6"}, {"measurement": "Day delay (Treated-control)", "setting": "[6]; [11]", "value": 2.4, "unit": "days"}, {"measurement": "Nonspecific Deaths/Total", "setting": "[6]; [11]", "value": "0/6"}, {"measurement": "Delay in tumor growth, in words", "setting": "[6]; wild type 16/C", "value": "no statistically significant delay in tumor growth"}, {"measurement": "Background activity in cell free extracts", "setting": "[7]; non-transduced 16/C and B16 cells", "value": 0}, {"measurement": "E. coli PNP activity in cell free extracts", "setting": "[7]; transduced 16/C cells, n=6", "value": "10.7 nmoles MeP-dR converted/mg cell protein/hr"}, {"measurement": "E. coli PNP activity in cell free extracts", "setting": "[7]; transduced B16 cells, n=2", "value": "2.4 nmoles MeP-dR converted/mg cell protein/hour"}, {"measurement": "Activity against tumors of wild-type and transduced cells at 80 to 20", "setting": "[8]", "value": "less active"}, {"measurement": "Effect on very large pre-existing PNP transduced tumors (approximately 1 gram)", "setting": "[9]", "value": "impressive regression"}, {"measurement": "Delay of tumor growth", "setting": "[10]; 33.5 mg/kg once a day for three days plus recombinant E. coli", "value": "approximately 42%"}, {"measurement": "Host toxicity", "setting": "[10]; 33.5 mg/kg plus recombinant E. coli", "value": "without host toxicity"}, {"measurement": "Anti-tumor effect", "setting": "[10]; [12]", "value": "anti-tumor effects were again observed"}, {"measurement": "Host toxicity", "setting": "[10]; [12]", "value": "toxic, with several deaths"}]}
